According to patent publication US20230097009A1, “USE OF COMPOUND IN PREVENTION AND/OR TREATMENT OF PATHOGEN INFECTION IN ANIMALS” (FELICAMED BIOTECHNOLOGY CO., LTD., priority 2020, published 2023):

What was measured:
feline coronavirus = assay: Treatment of a cat with recurrent wet FIP (Example 1): daily clinical observation, body weight, chest X-ray; type: in vivo; conditions: for body weight: 2.5 kg at enrollment (D0)
Description: A female British shorthair cat (Lele) of 2.5 kg, aged 8 month, unneutered. The cat had symptoms of increased body temperature, mental depression, decreased appetite, and increased abdominal girth in January, 2020. After 1 week, the cat was admitted. On January 18, the cat was diagnosed with feline infectious peritonitis (FIP) positive. After being treated with GS-441524 for 3 days, the cat was then administered with furosemide, Synulox®, prednisolone and itraconazole (P.O., q24h, 10 mg/kg) for 1 month. The drugs were discontinued after ascites regressed. Early in April, the disease recurred, showing decreased food intake and listlessness. […] The cat was enrolled on April 8, and was treated with the drug of the present invention at 2.0 mg/kg (SC, q24h) on days 1-14 (D1-14). Proper supportive treatments were given at the same time, including adjuvant treatment such as Moringa (a hepatoprotective drug), Lysinphirst (lysine) and Doctor Dolittle® (lactoferrin).
The pharmaceutically active compound described above is a pure powder have the following structure. The compound was added to a 0.9% normal saline (50 mL of endotoxin-free water and 0.45 g of NaCl), and the mixture was uniformly mixed and filtered through a filter membrane to give a clarified solution. The diluted compound was stored in a plastic-sealed sterile vial, stored in a refrigerator at 4° C., slowly heated to room temperature before injection, and administered using a disposable syringe. The injection ranged across the back, starting from 2 cm posterior to the scapula to the middle of the lumbar spine, half of the distance of the adjacent chest to flank.
The treatment was given by injection in the morning every day. […]
The hydrothorax completely regressed since about 7 days after the treatment. The body weight increased by 9% during and after the treatment.

[1] = test system: feline infectious peritonitis virus; assay: Clinical survival of cats with clinically confirmed FIP, treatment group vs control group (Example 2); type: in vivo, cat; conditions: 7 treated vs 8 control cats with FIP; GS-441524 pre-treatment 3 days; 2.0 mg/kg SC q24h D1-D14; death or neurological symptoms = clinical death; 14 days
Description: A total of 15 cats with clinically confirmed FIP were enrolled, with hydrothorax/ascites, positive CT value by PCR, and no neurological symptoms. 8 cats were allocated into the control group, and 7 cats were allocated into the treatment group.
The groups were pre-treated with GS-441524 for 3 days. For the control group, necessary supportive treatment was given on D1—D14.
The occurrence of death or neurological symptoms was judged as clinical death, and the clinical survival curve was plotted after 14 days.
The Log Rank (Mantel-Cox) and Breslow (Generalized Wilcoxon) methods were used for validity test, and both methods indicated a significant difference (P<0.05). The above description is only for the purpose of illustrating the preferred example of the present invention, and is not intended to limit the scope of the present invention. Any modifications, equivalents and the like made without departing from the spirit and principle of the present invention should be included in the protection scope of the present invention.

[2] = D1, cat with FIP, 2.0 mg/kg SC q24h
[3] = D2, cat with FIP, 2.0 mg/kg SC q24h
[4] = D3, cat with FIP, 2.0 mg/kg SC q24h
[5] = D4, cat with FIP, 2.0 mg/kg SC q24h
[6] = D5, cat with FIP, 2.0 mg/kg SC q24h
[7] = D6, cat with FIP, 2.0 mg/kg SC q24h
[8] = D7, cat with FIP, 2.0 mg/kg SC q24h
[9] = D8, cat with FIP, 2.0 mg/kg SC q24h
[10] = D9, cat with FIP, 2.0 mg/kg SC q24h
[11] = D10, cat with FIP, 2.0 mg/kg SC q24h
[12] = D11, cat with FIP, 2.0 mg/kg SC q24h
[13] = D12, cat with FIP, 2.0 mg/kg SC q24h
[14] = D13, cat with FIP, 2.0 mg/kg SC q24h
[15] = D14, cat with FIP, 2.0 mg/kg SC q24h

CN1CCC(c2ncc(-c3cnc(N)c(OCc4cccc(C#CC(C)(C)O)c4)c3)s2)CC1 [the drug of the present invention, 4-(3-(((2-amino-5-(2-(1-methylpiperidin-4-yl)thiazol-5-yl)pyridin-3-yl)oxy)methyl)phenyl)-2-methylbut-3-yn-2-ol]
38.6 °C: Body temperature Afternoon (feline coronavirus; [2])
38 °C: Body temperature Afternoon (feline coronavirus; [4]) | Body temperature Afternoon (feline coronavirus; [9])
Good: Food intake (feline coronavirus; [5]) | Mental state (feline coronavirus; [5]) | Food intake (feline coronavirus; [6]) | Mental state (feline coronavirus; [6]) | Food intake (feline coronavirus; [7]) | Mental state (feline coronavirus; [7]) | Food intake (feline coronavirus; [8]) | Mental state (feline coronavirus; [8]) | Food intake (feline coronavirus; [9]) | Mental state (feline coronavirus; [9]) | Food intake (feline coronavirus; [10]) | Mental state (feline coronavirus; [10]) | Food intake (feline coronavirus; [11]) | Mental state (feline coronavirus; [11]) | Food intake (feline coronavirus; [12]) | Mental state (feline coronavirus; [12]) | Food intake (feline coronavirus; [13]) | Mental state (feline coronavirus; [13]) | Food intake (feline coronavirus; [14]) | Mental state (feline coronavirus; [14]) | Food intake (feline coronavirus; [15]) | Mental state (feline coronavirus; [15])
Improved - 4: Food intake (feline coronavirus; D2, cat with FIP, 2.0 mg/kg SC q24h, D0 Decreased intake - 3) | Mental state (feline coronavirus; D2, cat with FIP, 2.0 mg/kg SC q24h, D0 Listless - 3)
remarkable clinical response: clinical response (appetite, mental state, weight) (feline coronavirus; after 2 weeks of treatment, cat with FIP, 2.0 mg/kg SC q24h)
Good - 5: Food intake (feline coronavirus; D3, cat with FIP, 2.0 mg/kg SC q24h, D0 Decreased intake - 3) | Mental state (feline coronavirus; D3, cat with FIP, 2.0 mg/kg SC q24h, D0 Listless - 3)
about 7 days: time after which the hydrothorax completely regressed (feline coronavirus; cat with wet FIP (chest), 2.0 mg/kg SC q24h, chest X-ray)
9%: body weight increase during and after the treatment (feline coronavirus; cat with FIP, 2.0 mg/kg SC q24h D1-14)
< 0.05: clinical survival vs control group, P (Log Rank (Mantel-Cox) and Breslow (Generalized Wilcoxon)) [1]
38.1 °C: Body temperature Afternoon (feline coronavirus; [3]) | Body temperature Afternoon (feline coronavirus; [8])
2.75 kg: body weight (feline coronavirus; [8]) | body weight (feline coronavirus; [15])
38.3 °C: Body temperature Afternoon (feline coronavirus; [5]) | Body temperature Afternoon (feline coronavirus; [6]) | Body temperature Afternoon (feline coronavirus; [7]) | Body temperature Afternoon (feline coronavirus; [11])
38.4 °C: Body temperature Afternoon (feline coronavirus; [12]) | Body temperature Afternoon (feline coronavirus; [15]) | Body temperature Morning (feline coronavirus; [15])
38.5 °C: Body temperature Afternoon (feline coronavirus; [13]) | Body temperature Afternoon (feline coronavirus; [14])
Normal: Defecation condition (feline coronavirus; [2]) | Respiratory state (feline coronavirus; [2]) | Defecation condition (feline coronavirus; [3]) | Respiratory state (feline coronavirus; [3]) | Defecation condition (feline coronavirus; [4]) | Respiratory state (feline coronavirus; [4]) | Defecation condition (feline coronavirus; [5]) | Respiratory state (feline coronavirus; [5]) | Defecation condition (feline coronavirus; [6]) | Respiratory state (feline coronavirus; [6]) | Defecation condition (feline coronavirus; [7]) | Respiratory state (feline coronavirus; [7]) | Defecation condition (feline coronavirus; [8]) | Respiratory state (feline coronavirus; [8]) | Defecation condition (feline coronavirus; [9]) | Respiratory state (feline coronavirus; [9]) | Defecation condition (feline coronavirus; [10]) | Respiratory state (feline coronavirus; [10]) | Defecation condition (feline coronavirus; [11]) | Respiratory state (feline coronavirus; [11]) | Defecation condition (feline coronavirus; [12]) | Respiratory state (feline coronavirus; [12]) | Defecation condition (feline coronavirus; [13]) | Respiratory state (feline coronavirus; [13]) | Defecation condition (feline coronavirus; [14]) | Respiratory state (feline coronavirus; [14]) | Defecation condition (feline coronavirus; [15]) | Respiratory state (feline coronavirus; [15])
38.9 °C: Body temperature Morning (feline coronavirus; [14])
38-38.5 °C: body temperature maintained throughout the treatment (feline coronavirus; cat with FIP, no fever at enrollment, 2.0 mg/kg SC q24h D1-14)
38.2 °C: Body temperature Afternoon (feline coronavirus; [10])
